Data published in patent publication US20160128338A1, “COMPOSITION AND METHODS FOR IMPROVED TURF HEALTH” (Valent U.S.A., Corporation, priority 2014, published 2016).

Key:
[1] = tested on: Dollar spot (Sclerotinia homoeocarpa); assay: Dollar spot on creeping bentgrass fairways, field plots (% damage); type: in vivo; conditions: Plot 2, Metconazole 0.14 oz ai/1000 sq ft
From the text: (§1) In order to determine the efficacy of combinations of metconazole and Myrothecium verucaria fermentation solids and solubles, numerous treatments were applied to plots in an area of turf grass. Specifically, the plots had established creeping bentgrass growing. No weed infestation was observed. Each plot was 30 square feet and the treatments were done in four replications. A randomized control was included in each block. The plots were no-till golf fairways. The treatments were applied during times of heat stress and also during times when no heat stress was present. The treatment solutions were prepared by pouring the liquid and dispersible granules in water and mixing. Treatments were applied to the turf grass at a volume of 2 gallons (256 liquid ounces)/1000 ft^2 with a CO2 backpack sprayer at 34 psi with a ground speed of 1 mph. The plots received six applications on 22 May, 6 June, 19 June, 4 July, 17 July, and 14 August. The turf grass was evaluated approximately every 7 days. Effect of Metconazole and Myrothecium verucaria fermentation solids and solubles on Dollar Spot on Creeping Bentgrass Fairways (% Damage)” and “Table 2. Effect of Metconazole and Myrothecium verucaria fermentation solids and solubles on Dollar Spot on Creeping Bentgrass Fairways (Quality Rating Based on a Scale of 1-9)”.

creeping bentgrass = assay: Turf quality rating of creeping bentgrass fairways with dollar spot, field plots (scale 1-9); type: in vivo, creeping bentgrass (Agrostis stolonifera); conditions: Plot 2, Metconazole 0.14 oz ai/1000 sq ft
From the text: as §1

## CC1(C)CCC(Cc2ccc(Cl)cc2)C1(O)Cn1cncn1 (centres unmarked) [Metconazole, 5-[(4-chlorophenyl)methyl]-2,2-dimetyl-1-(1 H-1,2,4-triazol-1-ylmethyl)cyclopentanol]
[1]; 3 July
  Dollar Spot % Damage: 16.3%
[1]; 6 June
  Dollar Spot % Damage: 8.8%
[1]; 7 Aug
  Dollar Spot % Damage: 36.3%
[1]; 10 July
  Dollar Spot % Damage: 32.5%
[1]; 14 Aug
  Dollar Spot % Damage: 55.0%
[1]; 15 June
  Dollar Spot % Damage: 7.5%
[1]; 17 July
  Dollar Spot % Damage: 36.3%
[1]; 21 Aug
  Dollar Spot % Damage: 37.5%
[1]; 22 June
  Dollar Spot % Damage: 10.0%
[1]; 25 July
  Dollar Spot % Damage: 24.3%
[1]; 26 June
  Dollar Spot % Damage: 11.3%
[1]; 31 July
  Dollar Spot % Damage: 31.3%
Creeping bentgrass; 3 July
  Quality Rating Based on a Scale of 1-9: 4.5
Creeping bentgrass; 7 Aug
  Quality Rating Based on a Scale of 1-9: 4.8
Creeping bentgrass; 10 July
  Quality Rating Based on a Scale of 1-9: 3.8
Creeping bentgrass; 14 Aug
  Quality Rating Based on a Scale of 1-9: 4.0
Creeping bentgrass; 15 June
  Quality Rating Based on a Scale of 1-9: 6.0
Creeping bentgrass; 17 July
  Quality Rating Based on a Scale of 1-9: 3.5
Creeping bentgrass; 21 Aug
  Quality Rating Based on a Scale of 1-9: 4.3
Creeping bentgrass; 22 June
  Quality Rating Based on a Scale of 1-9: 5.5
Creeping bentgrass; 25 July
  Quality Rating Based on a Scale of 1-9: 4.8
Creeping bentgrass; 26 June
  Quality Rating Based on a Scale of 1-9: 5.5
Creeping bentgrass; 31 July
  Quality Rating Based on a Scale of 1-9: 4.8
